Laboratory results: patent US9113629B2, “4-amino-6-(4-substituted-phenyl)-picolinates and 6-amino-2-(4-substituted-phenyl)-pyrimidine-4-carboxylates and their use as herbicides” (DOW AGROSCIENCES LLC, priority 2013, dated 2015)
Read-outs that look alike come from different tables or passages of the source.

Legend:
[1] = tested on: Key Grass and Sedge Weeds as well as Grass Crops; assay: Post-emergent Test II herbicidal activity (Table 6); format: in vivo; conditions: post-emergence, 336 h; for pest or weed control at 140 g/ha: application rate 140 g ai/ha; for pest or weed control at 70 g/ha: application rate 70 g ai/ha
Procedure: (§1) Post-emergent Test II: Seeds or nutlets of the desired test plant species were planted in Sun Gro Metro-Mix® 360 planting mixture, which typically has a pH of 6.0 to 6.8 and an organic matter content of about 30 percent, in plastic pots with a surface area of 64 square centimeters. When required to ensure good germination and healthy plants, a fungicide treatment and/or other chemical or physical treatment was applied. The plants were grown for 7-21 d in a greenhouse with an approximate 15 h photoperiod which was maintained at about 23-29° C. during the day and 22-28° C. during the night. Nutrients and water were added on a regular basis and supplemental lighting was provided with overhead metal halide 1000-Watt lamps as necessary. The plants were employed for testing when they reached the first or second true leaf stage.
(§2) A weighed amount, determined by the highest rate to be tested, of each test compound was placed in a 25 mL glass vial and was dissolved in 4 mL of a 97:3 v/v mixture of acetone and DMSO to obtain concentrated stock solutions. […] The concentrated stock solutions obtained were diluted with 20 mL of an aqueous mixture containing acetone, water, isopropyl alcohol, DMSO. Atplus 411F crop oil concentrate, and Triton® X-155 surfactant in a 48.5:39:10:1.5:1.0:0.02 v/v ratio to obtain spray solutions containing the highest application rates. Additional application rates were obtained by serial dilution of 12 mL of the high rate solution into a solution containing 2 mL of 97:3 v/v mixture of acetone and DMSO and 10 mL of an aqueous mixture containing acetone, water, isopropyl alcohol, DMSO, Atplus 411F crop oil concentrate, and Triton X-155 surfactant in a 48.5:39:10:1.5:1.0:0.02 v/v ratio to obtain ½×, ¼×, ⅛× and 1/16× rates of the high rate. Compound requirements are based upon a 12 mL application volume at a rate of 187 liters per hectare (L/ha). Formulated compounds were applied to the plant material with an overhead Mandel track sprayer equipped with 8002E nozzles calibrated to deliver 187 L/ha over an application area of 0.503 square meters at a spray height of 18 inches (43 cm) above the average plant canopy height. Control plants were sprayed in the same manner with the solvent blank.
(§3) The treated plants and control plants were placed in a greenhouse as described above and watered by subirrigation to prevent wash-off of the test compounds. After 14 d, the condition of the test plants as compared with that of the untreated plants was determined visually and scored on a scale of 0 to 100 percent where 0 corresponds to no injury and 100 corresponds to complete kill.

[2] = tested on: Key Broadleaf Weed and Crop Species; assay: Post-emergent Test II herbicidal activity (Table 5); format: in vivo; conditions: post-emergence, 336 h, 14 days after application; for pest or weed control at 70 g/ha: application rate 70 g ai/ha
Procedure: as §1, §2, §3

[3] = Triticum aestivum, TRZSS (wheat), read-out: Visual Growth Reduction (%) 14 Days After Application, TRZSS
[4] = CYPES: yellow nutsedge (Cyperus esculentus), read-out: Visual Growth Reduction (%) 14 Days After Application, CYPES
[5] = DIGSA: crabgrass (Digitaria sanguinalis), read-out: Visual Growth Reduction (%) 14 Days After Application, DIGSA
[6] = ECHCG: barnyardgrass (Echinochloa crus-galli), read-out: Visual Growth Reduction (%) 14 Days After Application, ECHCG
[7] = ORYSA: rice (Oryza sativa), read-out: Visual Growth Reduction (%) 14 Days After Application, ORYSA
[8] = SETFA: giant foxtail (Setaria faberi), read-out: Visual Growth Reduction (%) 14 Days After Application, SETFA
[9] = SORVU: grain sorghum (Sorghum vulgare), read-out: Visual Growth Reduction (%) 14 Days After Application, SORVU
[10] = ZEAMX: maize, corn (Zea mays), read-out: Visual Growth Reduction (%) 14 Days After Application, ZEAMX
[11] = ABUTH: velvetleaf (Abutilon theophrasti), 140 g ai/ha, post-emergent, read-out: Visual Growth Reduction (%) 14 Days After Application ABUTH
[12] = AMARE: redroot pigweed (Amaranthus retroflexus), 140 g ai/ha, post-emergent, read-out: Visual Growth Reduction (%) 14 Days After Application AMARE
[13] = BRSNN: oilseed-rape, canola (Brassica napus), 140 g ai/ha, post-emergent, read-out: Visual Growth Reduction (%) 14 Days After Application BRSNN
[14] = CHEAL: lambsquarters (Chenopodium album), 140 g ai/ha, post-emergent, read-out: Visual Growth Reduction (%) 14 Days After Application CHEAL
[15] = EPHHL: wild poinsettia (Euphorbia heterophylla), 140 g ai/ha, post-emergent, read-out: Visual Growth Reduction (%) 14 Days After Application EPHHL
[16] = HELAN: sunflower (Helianthus annuus), 140 g ai/ha, post-emergent, read-out: Visual Growth Reduction (%) 14 Days After Application HELAN
[17] = VIOTR: wild pansy (Viola tricolor), 140 g ai/ha, post-emergent, read-out: Visual Growth Reduction (%) 14 Days After Application VIOTR

Question: What does the source list for `COC(=O)c1nc(-c2ccc(OC(F)(F)F)cc2)nc(N)c1OC` [Compound 30]?
Answer: melting point: 122 to 123.6 °C; pest or weed control at 140 g/ha [1, 3]: 0 to 29%; pest or weed control at 140 g/ha [1, 4]: 0 to 29%; pest or weed control at 140 g/ha [1, 5]: 0 to 29%; pest or weed control at 140 g/ha [1, 6]: 0 to 29%; pest or weed control at 140 g/ha [1, 7]: 0 to 29%; pest or weed control at 140 g/ha [1, 8]: 0 to 29%; pest or weed control at 140 g/ha [1, 9]: 0 to 29%; pest or weed control at 140 g/ha [1, 10]: 0 to 29%; pest or weed control at 140 g/ha [2, 11]: 45 to 59%; pest or weed control at 140 g/ha [2, 12]: 0 to 29%; pest or weed control at 140 g/ha [2, 13]: 0 to 29%; pest or weed control at 140 g/ha [2, 14]: 0 to 29%; pest or weed control at 140 g/ha [2, 15]: 95 to 100%; pest or weed control at 140 g/ha [2, 16]: 0 to 29%; pest or weed control at 140 g/ha [2, 17]: 0 to 29%

Question: With `C=Cc1c(N)nc(-c2ccc(I)cc2)nc1C(=O)OC` [Compound 164, methyl 6-amino-2-(4-iodophenyl)-5-vinylpyrimidine-4-carboxylate] as the molecule, how does the melting point read?
Answer: 142 to 144 °C

Question: For `Nc1c(Cl)c(C(=O)O)nc(-c2ccc(OC(F)(F)F)cc2)c1Cl` [Compound 105], which melting point is on record?
Answer: 141.9 to 143.1 °C

Question: And the pest or weed control at 140 g/ha [1, 3]?
Answer: 0 to 29%

Question: And the pest or weed control at 140 g/ha [1, 4]?
Answer: 0 to 29%

Question: And the pest or weed control at 140 g/ha [1, 5]?
Answer: 0 to 29%

Question: What about the pest or weed control at 140 g/ha [1, 6] of the same molecule?
Answer: 0 to 29%

Question: And the pest or weed control at 140 g/ha [1, 7]?
Answer: 0 to 29%

Question: And the pest or weed control at 140 g/ha [1, 8]?
Answer: 0 to 29%

Question: And the pest or weed control at 140 g/ha [1, 9]?
Answer: 0 to 29%

Question: What about the pest or weed control at 140 g/ha [1, 10] of the same molecule?
Answer: 0 to 29%

Question: And the pest or weed control at 140 g/ha [2, 11]?
Answer: 0 to 29%

Question: What about the pest or weed control at 140 g/ha [2, 12] of the same molecule?
Answer: 0 to 29%

Question: And the pest or weed control at 140 g/ha [2, 13]?
Answer: 0 to 29%

Question: What about the pest or weed control at 140 g/ha [2, 14] of the same molecule?
Answer: 0 to 29%

Question: What about the pest or weed control at 140 g/ha [2, 15] of the same molecule?
Answer: 0 to 29%

Question: And the pest or weed control at 140 g/ha [2, 16]?
Answer: 95 to 100%

Question: What about the pest or weed control at 140 g/ha [2, 17] of the same molecule?
Answer: 0 to 29%

Question: Which melting point does the source give for `COc1c(N)nc(-c2ccccc2)nc1C(=O)O` [Compound 207] here?
Answer: 130 to 132 °C

Question: For `C#Cc1ccc(-c2nc(C(=O)O)c(Cl)c(N)c2C)cc1F` [Compound 6, 4-Amino-3-chloro-6-(4-ethynyl-3-fluorophenyl)-5-methylpicolinic acid], which melting point is on record?
Answer: 175 to 176.5 °C

Question: Which melting point does the source give for `C=Cc1c(C(=O)OC)nc(-c2ccc(I)cc2)c(F)c1N` [Compound 139, methyl 4-amino-5-fluoro-6-(4-iodophenyl)-3-vinylpicolinate] here?
Answer: 95 to 96 °C

Question: Which pest or weed control at 70 g/ha [1, 3] does the source give for `COC(=O)c1nc(-c2ccc(C(F)(F)F)c(F)c2)nc(N)c1OC` [Compound 26, methyl 6-amino-2-(3-fluoro-4-(trifluoromethyl)phenyl)-5-methoxypyrimidine-4-carboxylate] here?
Answer: 45 to 59%

Question: What about the pest or weed control at 140 g/ha [1, 3] of the same molecule?
Answer: 45 to 59%

Question: And the pest or weed control at 70 g/ha [1, 5]?
Answer: 0 to 29%

Question: What about the pest or weed control at 140 g/ha [1, 5] of the same molecule?
Answer: 0 to 29%

Question: And the pest or weed control at 70 g/ha [1, 6]?
Answer: 0 to 29%

Question: What about the pest or weed control at 140 g/ha [1, 6] of the same molecule?
Answer: 0 to 29%

Question: What about the pest or weed control at 70 g/ha [1, 7] of the same molecule?
Answer: 0 to 29%

Question: And the pest or weed control at 140 g/ha [1, 7]?
Answer: 0 to 29%

Question: What about the pest or weed control at 70 g/ha [1, 8] of the same molecule?
Answer: 0 to 29%

Question: And the pest or weed control at 140 g/ha [1, 8]?
Answer: 0 to 29%

Question: And the pest or weed control at 70 g/ha [1, 9]?
Answer: 0 to 29%

Question: And the pest or weed control at 140 g/ha [1, 9]?
Answer: 0 to 29%

Question: And the pest or weed control at 70 g/ha [1, 10]?
Answer: 0 to 29%

Question: What about the pest or weed control at 140 g/ha [1, 10] of the same molecule?
Answer: 45 to 59%

Question: What about the pest or weed control at 70 g/ha ([2]; ABUTH: velvetleaf (Abutilon theophrasti), read-out: Visual Growth Reduction (%) 14 Days After Application, ABUTH) of the same molecule?
Answer: 85 to 94%

Question: And the pest or weed control at 140 g/ha ([2]; ABUTH: velvetleaf (Abutilon theophrasti), application rate 140 g ai/ha, read-out: Visual Growth Reduction (%) 14 Days After Application, ABUTH)?
Answer: 85 to 94%

Question: What about the pest or weed control at 70 g/ha ([2]; AMARE: redroot pigweed (Amaranthus retroflexus), read-out: Visual Growth Reduction (%) 14 Days After Application, AMARE) of the same molecule?
Answer: 60 to 74%

Question: And the pest or weed control at 140 g/ha ([2]; AMARE: redroot pigweed (Amaranthus retroflexus), application rate 140 g ai/ha, read-out: Visual Growth Reduction (%) 14 Days After Application, AMARE)?
Answer: 75 to 84%

Question: And the pest or weed control at 70 g/ha ([2]; BRSNN: oilseed-rape, canola (Brassica napus), read-out: Visual Growth Reduction (%) 14 Days After Application, BRSNN)?
Answer: 30 to 44%

Question: What about the pest or weed control at 140 g/ha ([2]; BRSNN: oilseed-rape, canola (Brassica napus), application rate 140 g ai/ha, read-out: Visual Growth Reduction (%) 14 Days After Application, BRSNN) of the same molecule?
Answer: 30 to 44%

Question: And the pest or weed control at 70 g/ha ([2]; CHEAL: lambsquarters (Chenopodium album), read-out: Visual Growth Reduction (%) 14 Days After Application, CHEAL)?
Answer: 0 to 29%

Question: What about the pest or weed control at 140 g/ha ([2]; CHEAL: lambsquarters (Chenopodium album), application rate 140 g ai/ha, read-out: Visual Growth Reduction (%) 14 Days After Application, CHEAL) of the same molecule?
Answer: 0 to 29%

Question: What about the pest or weed control at 70 g/ha ([2]; EPHHL: wild poinsettia (Euphorbia heterophylla), read-out: Visual Growth Reduction (%) 14 Days After Application, EPHHL) of the same molecule?
Answer: 95 to 100%

Question: And the pest or weed control at 140 g/ha ([2]; EPHHL: wild poinsettia (Euphorbia heterophylla), application rate 140 g ai/ha, read-out: Visual Growth Reduction (%) 14 Days After Application, EPHHL)?
Answer: 95 to 100%

Question: What about the pest or weed control at 70 g/ha ([2]; HELAN: sunflower (Helianthus annuus), read-out: Visual Growth Reduction (%) 14 Days After Application, HELAN) of the same molecule?
Answer: 85 to 94%

Question: And the pest or weed control at 140 g/ha ([2]; HELAN: sunflower (Helianthus annuus), application rate 140 g ai/ha, read-out: Visual Growth Reduction (%) 14 Days After Application, HELAN)?
Answer: 85 to 94%

Question: And the pest or weed control at 70 g/ha ([2]; VIOTR: wild pansy (Viola tricolor), read-out: Visual Growth Reduction (%) 14 Days After Application, VIOTR)?
Answer: 0 to 29%

Question: What about the pest or weed control at 140 g/ha ([2]; VIOTR: wild pansy (Viola tricolor), application rate 140 g ai/ha, read-out: Visual Growth Reduction (%) 14 Days After Application, VIOTR) of the same molecule?
Answer: 0 to 29%
